Test results reported in ChEMBL document CHEMBL1146459, “Production of biologically active taxoids by a callus culture of Taxus cuspidata” (2004).

System: SNB-75
Assay: Growth inhibition of human SNB75 cells after 48 hrs by SRB assay
Format: functional
Details: SNB-75, 48 h
[1] = read-out: LC50 (the source's name)
[2] = read-out: pLC50 (the source's name) (converted)

SMILES: C=C1[C@@H](OC(C)=O)CC[C@]2(C)[C@@H]1C[C@@H]1C[C@H](OC(C)=O)C(C)=C([C@@H](O)[C@@H]2OC(=O)/C=C/c2ccccc2)C1(C)C
- GI50 (read-out: GI50): 7.3 µM
- CC50 [1]: 100 µM
- TGI (read-out: TGI): 68 µM
- GI50 (read-out: pGI50 (converted)): 7.24 µM
- CC50 [2]: 100 µM
- TGI (read-out: pTGI (converted)): 67.6 µM

SMILES: C=C1[C@@H](OC(C)=O)CC[C@@]2(C)C[C@H](OC(C)=O)C3=C(C)C[C@H](OC(=O)C(C)CC)[C@@H]([C@@H](OC(C)=O)[C@H]12)C3(C)C (stereo partly specified)
- CC50 [1]: > 100 µM
- TGI (read-out: TGI): 55 µM
- GI50 (read-out: pGI50 (converted)): 8.91 µM
- CC50 [2]: 100 µM
- TGI (read-out: pTGI (converted)): 55 µM
